# Test results from US20260108546A1 (ELI LILLY AND COMPANY, priority 2024, published 2026).
# Target: T1, hGIP-R (Homo sapiens, UniProt P48546)
# T1 construct: expressed in transfected cells; host or cells: HEK-293 clonal cell lines
# T1 sequence (P48546 22-466): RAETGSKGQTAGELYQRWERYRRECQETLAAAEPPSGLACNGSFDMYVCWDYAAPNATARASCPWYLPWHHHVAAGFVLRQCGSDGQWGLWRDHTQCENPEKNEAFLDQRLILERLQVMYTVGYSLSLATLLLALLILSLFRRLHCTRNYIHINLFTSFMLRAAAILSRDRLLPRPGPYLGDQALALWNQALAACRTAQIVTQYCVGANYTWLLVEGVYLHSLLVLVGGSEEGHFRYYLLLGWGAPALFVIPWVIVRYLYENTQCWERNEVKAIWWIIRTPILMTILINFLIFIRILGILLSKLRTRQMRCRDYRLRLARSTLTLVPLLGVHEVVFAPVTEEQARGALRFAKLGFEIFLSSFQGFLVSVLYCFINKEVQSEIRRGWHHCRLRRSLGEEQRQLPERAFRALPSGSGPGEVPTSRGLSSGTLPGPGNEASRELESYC
# Assay: Functional hGIP-R Assay (cAMP formation, HTRF)
# Assay type: cell-based
# Conditions: for Emax: cAMP efficacy, percent of maximal response to GIP(1-42)OH, 37° C., 0.1% bovine casein, arithmetic mean ± SEM; for EC50: cAMP potency, HEK-293 cells expressing hGIP-R, incubated at 37° C. in the presence of 0.1% bovine casein, geometric mean, read-out: Human GIP-R EC50, nM (SEM, n)
# How it was run: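 Relative EC50 and Emax came from four-parameter logistic fits of cAMP as a percent of the human GIP (1-42) OH maximal response. The cAMP was measured by competitive HTRF after 30 min, 37 °C compound exposure of hGIP-R HEK-293 clones in IBMX (250 μM)-containing medium.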
compound,measurement,value
"CC(C)(Cn1cc(C(F)(F)F)cn1)NC(=O)[C@@H](Cc1cnc2ncccn12)NC(=O)[C@H]1C[C@@H]1c1ccc(-c2cnc3nc(C(C)(F)F)cn3c2)cc1 [Example 80, (1S,2S)-2-(4-(2-(1,1-Difluoroethyl)imidazo[1,2-a]pyrimidin-6-yl)phenyl)-N-((R)-3-(imidazo[1,2-a]pyrimidin-3-yl)-1-((2-methyl-1-(4-(trifluoromethyl)-1H-pyrazol-1-yl)propan-2-yl)amino)-1-oxopropan-2-yl)cyclopropane-1-carboxamide]",Emax,109 ± 4.1%
same,EC50,28.6 nM
"Cc1nc(-c2cnc3nc(C4CC4)cn3c2)ccc1[C@H]1C[C@@]12CCN([C@H](Cc1cnn(C(F)F)c1)C(=O)NC(C)(C)Cn1nc(C(F)(F)F)cc1-c1cc(F)c(=O)n(C)c1)C2=O [Example 170, (R)-2-((1R,3R)-1-(6-(2-cyclopropylimidazo[1,2-a]pyrimidin-6-yl)-2-methylpyridin-3-yl)-4-oxo-5-azaspiro[2.4]heptan-5-yl)-3-(1-(difluoromethyl)-1H-pyrazol-4-yl)-N-(1-(5-(5-fluoro-1-methyl-6-oxo-1,6-dihydropyridin-3-yl)-3-(trifluoromethyl)-1H-pyrazol-1-yl)-2-methylpropan-2-yl)propanamide]",Emax,97.2 ± 0.998%
same,EC50,0.846 nM
"CC(C)(Cc1ccc(F)cc1)NC(=O)[C@@H](Cc1cnc2ncccn12)NC(=O)[C@H]1C[C@@H]1c1ccc(-c2cnc3nccn3c2)cc1 [Example 87, (1S,2S)-N-((R)-1-((1-(4-Fluorophenyl)-2-methylpropan-2-yl)amino)-3-(imidazo[1,2-a]pyrimidin-3-yl)-1-oxopropan-2-yl)-2-(4-(imidazo[1,2-a]pyrimidin-6-yl)phenyl)cyclopropane-1-carboxamide]",Emax,71.1 ± 9.09%
same,EC50,52.7 nM
"Cn1cc(C[C@@H](NC(=O)[C@H]2C[C@@H]2c2ccc(-c3cnc4nn(C)cc4c3)cc2)C(=O)NC(C)(C)Cn2nc(C(F)(F)F)cc2-c2cccc(=O)[nH]2)cn1 [Example 64, (1S,2S)-N—((R)-1-((2-Methyl-1-(5-(6-oxo-1,6-dihydropyridin-2-yl)-3-(trifluoromethyl)-1H-pyrazol-1-yl)propan-2-yl)amino)-3-(1-methyl-1H-pyrazol-4-yl)-1-oxopropan-2-yl)-2-(4-(2-methyl-2H-pyrazolo[3,4-b]pyridin-5-yl)phenyl)cyclopropane-1-carboxamide]",Emax,128%
same,EC50,61.9 nM
"[2H]C([2H])([2H])n1cc(C[C@H](C(=O)NC(C)(C)Cn2nc(C(F)(F)F)cc2-c2ccc(C(C)(C)O)nc2)N2CC[C@@]3(C[C@@H]3c3ccc(-c4cnc5nn(C6CC6)cc5c4)nc3C)C2=O)cn1 [Example 190, (R)-2-((1R,3R)-1-(6-(2-cyclopropyl-2H-pyrazolo[3,4-b]pyridin-5-yl)-2-methylpyridin-3-yl)-4-oxo-5-azaspiro[2.4]heptan-5-yl)-N-(1-(5-(6-(2-hydroxypropan-2-yl)pyridin-3-yl)-3-(trifluoromethyl)-1H-pyrazol-1-yl)-2-methylpropan-2-yl)-3-(1-(methyl-d3)-1H-pyrazol-4-yl)propanamide]",Emax,80.2 ± 6.78%
same,EC50,1.12 nM
"Cn1cc2cc(-c3ccc([C@H]4C[C@@]45CCN([C@H](Cc4cnn(C(F)F)c4)C(=O)NC(C)(C)Cn4nc(C(F)(F)F)cc4-c4ccn(C6CC6)c(=O)n4)C5=O)c(Cl)c3)cnc2n1 [Example 161, (R)-2-((1S,3R)-1-(2-chloro-4-(2-methyl-2H-pyrazolo[3,4-b]pyridin-5-yl)phenyl)-4-oxo-5-azaspiro[2.4]heptan-5-yl)-N-(1-(5-(1-cyclopropyl-2-oxo-1,2-dihydropyrimidin-4-yl)-3-(trifluoromethyl)-1H-pyrazol-1-yl)-2-methylpropan-2-yl)-3-(1-(difluoromethyl)-1H-pyrazol-4-yl)propanamide]",Emax,71.7 ± 1.02%
same,EC50,1.47 nM
"COC(=O)c1cc(C(F)(F)F)nn1CC(C)(C)NC(=O)[C@@H](Cc1cnn(C)c1)NC(=O)[C@H]1C[C@@H]1c1ccc(-c2cnc3nc(C(F)(F)F)cn3c2)cc1 [Example 24, Methyl 1-(2-methyl-2-((R)-3-(1-methyl-1H-pyrazol-4-yl)-2-((15,2S)-2-(4-(2-(trifluoromethyl)imidazo [1,2-a]pyrimidin-6-yl)phenyl)cyclopropane-1-carboxamido)propanamido)propyl)-3-(trifluoromethyl)-1H-pyrazole-5-carboxylate]",Emax,133 ± 0.579%
same,EC50,15.8 nM
"[2H]C([2H])([2H])N(C(=O)[C@H]1C[C@@H]1c1ccc(-c2cnc3nn(C)cc3c2)nc1C(F)(F)F)[C@H](Cc1cnn(C(F)F)c1)C(=O)NC(C)(C)Cn1nc(C(F)(F)F)cc1-c1cc(F)c(=O)n(C)c1 [Example 136, (1S,2S)-N—((R)-3-(1-(Difluoromethyl)-1H-pyrazol-4-yl)-1-((1-(5-(5-fluoro-1-methyl-6-oxo-1,6-dihydropyridin-3-yl)-3-(trifluoromethyl)-1H-pyrazol-1-yl)-2-methylpropan-2-yl)amino)-1-oxopropan-2-yl)-N-(methyl-d3)-2-(6-(2-methyl-2H-pyrazolo[3,4-b]pyridin-5-yl)-2-(trifluoromethyl)pyridin-3-yl)cyclopropane-1-carboxamide]",Emax,74.6 ± 6.02%
same,EC50,10.8 nM
"CN(C(=O)[C@H]1C[C@@H]1c1ccc(-c2cnc3nccn3c2)cc1)[C@H](Cc1cnn(C)c1)C(=O)NC(C)(C)Cn1nc(C(F)(F)F)cc1-c1ccc(=O)n(C)c1 [Example 34, (1S,2S)-2-(4-(imidazo[1,2-a]pyrimidin-6-yl)phenyl)-N-methyl-N-((R)-1-((2-methyl-1-(5-(1-methyl-6-oxo-1,6-dihydropyridin-3-yl)-3-(trifluoromethyl)-1H-pyrazol-1-yl)propan-2-yl)amino)-3-(1-methyl-1H-pyrazol-4-yl)-1-oxopropan-2-yl)cyclopropane-1-carboxamide]",Emax,113 ± 12.3%
same,EC50,183 nM
"[2H]C([2H])([2H])n1cc(C[C@H](C(=O)NC(C)(C)Cn2nc(C(F)(F)F)cc2-c2ccc(C(C)(C)O)nc2)N2CC[C@@]3(C[C@@H]3c3ccc(-c4cnc5nc(COC)cn5c4)nc3C3CC3)C2=O)cn1 [Example 192, (R)-2-((1R,3R)-1-(2-cyclopropyl-6-(2-(methoxymethyl)imidazo[1,2-a]pyrimidin-6-yl)pyridin-3-yl)-4-oxo-5-azaspiro[2.4]heptan-5-yl)-N-(1-(5-(6-(2-hydroxypropan-2-yl)pyridin-3-yl)-3-(trifluoromethyl)-1H-pyrazol-1-yl)-2-methylpropan-2-yl)-3-(1-(methyl-d3)-1H-pyrazol-4-yl)propanamide]",Emax,129%
same,EC50,0.0409 nM
"Cc1cn2cc(-c3ccc([C@H]4C[C@@]45CCN([C@H](Cc4cnn(C(F)F)c4)C(=O)NC(C)(C)Cn4nc(C(F)(F)F)cc4-c4ccc(=O)[nH]n4)C5=O)c(Cl)c3)cnc2n1 [Example 148, (R)-2-((1S,3R)-1-(2-Chloro-4-(2-methylimidazo[1,2-a]pyrimidin-6-yl)phenyl)-4-oxo-5-azaspiro[2.4]heptan-5-yl)-3-(1-(difluoromethyl)-1H-pyrazol-4-yl)-N-(2-methyl-1-(5-(6-oxo-1,6-dihydropyridazin-3-yl)-3-(trifluoromethyl)-1H-pyrazol-1-yl)propan-2-yl)propanamide]",Emax,74.4 ± 2.94%
same,EC50,1.13 nM
"COc1nnc(C)cc1-c1cc(C(F)(F)F)nn1CC(C)(C)NC(=O)[C@@H](Cc1cnn(C(F)F)c1)N1CC[C@@]2(C[C@@H]2c2ccc(-c3cnc4nn(C)cc4c3)nc2C)C1=O [Example 180, (R)-3-(1-(difluoromethyl)-1H-pyrazol-4-yl)-N-(1-(5-(3-methoxy-6-methylpyridazin-4-yl)-3-(trifluoromethyl)-1H-pyrazol-1-yl)-2-methylpropan-2-yl)-2-((1R,3R)-1-(2-methyl-6-(2-methyl-2H-pyrazolo[3,4-b]pyridin-5-yl)pyridin-3-yl)-4-oxo-5-azaspiro[2.4]heptan-5-yl)propanamide]",Emax,35.4 ± 1.96%
same,EC50,7.75 nM
"COCc1cn2cc(-c3ccc([C@H]4C[C@@]45CCN([C@H](Cc4cnn(C(F)F)c4)C(=O)NC(C)(C)Cn4nc(C(F)(F)F)cc4-c4ccc(C(C)(C)O)nc4)C5=O)c(C)n3)cnc2n1 [Example 168, (R)-3-(1-(difluoromethyl)-1H-pyrazol-4-yl)-N-(1-(5-(6-(2-hydroxypropan-2-yl)pyridin-3-yl)-3-(trifluoromethyl)-1H-pyrazol-1-yl)-2-methylpropan-2-yl)-2-((1R,3R)-1-(6-(2-(methoxymethyl)imidazo[1,2-a]pyrimidin-6-yl)-2-methylpyridin-3-yl)-4-oxo-5-azaspiro[2.4]heptan-5-yl)propanamide]",Emax,110%
same,EC50,1.81 nM
"Cn1cc(C[C@@H](NC(=O)[C@H]2C[C@@H]2c2ccc(-c3cnc4nn(C)cc4c3)cc2)C(=O)NC(C)(C)Cn2nc(C(F)(F)F)cc2-c2cccn(C)c2=O)cn1 [Example 58, (1S,2S)-N-((R)-1-((2-Methyl-1-(5-(1-methyl-2-oxo-1,2-dihydropyridin-3-yl)-3-(trifluoromethyl)-1H-pyrazol-1-yl)propan-2-yl)amino)-3-(1-methyl-1H-pyrazol-4-yl)-1-oxopropan-2-yl)-2-(4-(2-methyl-2H-pyrazolo[3,4-b]pyridin-5-yl)phenyl) cyclopropane-1-carboxamide]",Emax,110 ± 1.71%
same,EC50,23.8 nM
